How the values were obtained:
normal liver organoids = assay: Viability of normal liver organoids treated with the drug (cytotoxicity); assay type: cell-based, human
Experimental: Also, when the viability of the normal liver organoids treated with the drug was analyzed to evaluate the cytotoxicity depending on the concentration of the drug, it was confirmed that the viability was 80% or more at 1 μM, 70% at 10 μM, and about 60% at 100 μM (FIG. 15B). That is, it was confirmed that liver toxicity increased as the treatment concentration of OCA increased.
(§1) Also, when the viability of the normal liver organoids treated with the drug was analyzed to evaluate the cytotoxicity depending on the concentration of the drug, it was confirmed that the viability was 70% or more at 1 μM to 10 μM and about 50% at 100 μM (FIG. 16B).
as §1, with “not affected at a concentration of up to 1 μM, and it was 80%” for “70%”, “at” for “at 1 μM to”, “60%” for “50%”, “17B).” for “16B).”

[1] = tested on: human tissue-derived non-alcoholic steatohepatitis (NASH) liver organoids; assay: Drug efficacy evaluation in human tissue-derived NASH liver organoids co-cultured with EC, KC and HSC in LEM-Chip; assay type: cell-based
Source text: (§2) Steatohepatitis (NASH) was induced in liver organoids in which a liver tissue microenvironment [vascular endothelial cells (E)+Kupffer cells (K)+hepatic stellate cells (S)] was constructed under culture conditions in which the decellularized liver tissue-derived LEM scaffold and the multiwell microfluidic device were combined, followed by treatment with obeticholic acid (OCA) at different concentrations. OCA (Obeticholic acid) is a semi-synthetic bile acid analogue that has conventionally been used to treat cholangitis and is a drug candidate whose efficacy has recently been verified in non-alcoholic steatohepatitis clinical trials. The NASH group was treated with 800 μM fatty acid for 3 days to induce a disease, and the NASH+OCA group was treated with 800 μM fatty acid and the corresponding drug for 3 days at different concentrations.
as §2, with “ezetimibe (Eze)” for “obeticholic acid (OCA)”, “Eze (Ezetimibe)” for “OCA (Obeticholic acid)”, “cholesterol absorption inhibitor and is a drug candidate” for “semi-synthetic bile acid analogue”, “hyperglycemic cholesterol” for “cholangitis”, “lipid abnormalities.” for “is a drug candidate whose efficacy has recently been verified in non-alcoholic steatohepatitis clinical trials.”, “NASH+Eze” for “NASH+OCA”
as §2, with “dapagliflozin (DAPA)” for “obeticholic acid (OCA)”, “DAPA (Dapagliflozin)” for “OCA (Obeticholic acid)”, “sodium-glucose transporter inhibitor and is a drug candidate” for “semi-synthetic bile acid analogue”, “diabetes.” for “cholangitis and is a drug candidate whose efficacy has recently been verified in non-alcoholic steatohepatitis clinical trials.”, “NASH+DAPA” for “NASH+OCA”

[2] = 800 μM fatty acid + drug for 3 days at different concentrations
[3] = drug concentration of 10 μM or more

Row | Structure (SMILES) | viability of the normal liver organoids (normal liver organoids; 10 μM drug) [%] | viability of the normal liver organoids (normal liver organoids; 100 μM drug) | viability of the normal liver organoids (normal liver organoids; concentration of up to 1 μM) | viability of the normal liver organoids (normal liver organoids; 1 μM drug) [%] | liver toxicity (normal liver organoids; as the treatment concentration increased) | amount of fat accumulation [1, 2] | morphology and structure of the organoid [1, 2] | expression of the fibrosis marker, quantitative PCR [1, 3] | expression of the inflammation marker, quantitative PCR [1, 3] | expression of fibrosis-related marker (SMA), quantitative PCR ([1]; vs NASH group, 3 days) | expression of inflammation-related marker (TNFα), quantitative PCR ([1]; vs NASH group, 3 days) | viability of the normal liver organoids (normal liver organoids; 1 μM to 10 μM drug) [%]
1 | CCOc1ccc(Cc2cc([C@@H]3O[C@H](CO)[C@@H](O)[C@H](O)[C@H]3O)ccc2Cl)cc1 [DAPA, dapagliflozin] | ≥ 80 | about 60% | not affected |  |  |  |  |  |  |  |  | 
2 | CC[C@H]1[C@@H](O)[C@@H]2[C@H](CC[C@]3(C)[C@@H]([C@H](C)CCC(=O)O)CC[C@@H]23)[C@@]2(C)CC[C@@H](O)C[C@@H]12 [OCA, obeticholic acid] | 70 | about 60% |  | ≥ 80 | increased |  |  |  |  |  |  | 
3 | O=C1[C@H](CC[C@H](O)c2ccc(F)cc2)[C@@H](c2ccc(O)cc2)N1c1ccc(F)cc1 [Eze, ezetimibe] |  | about 50% |  |  |  | reduced as the concentration increased | recovered | decreased to a level similar to that in the normal organoid | decreased to a level similar to that in the normal organoid | decreased | decreased | ≥ 70

— US20240228973A9, “NON-ALCOHOLIC FATTY LIVER ARTIFICIAL TISSUE MODEL” (CELLARTGEN INC., priority 2021, published 2024)
